Source: patent US10517871B2, “Survivin-targeting anti-tumor agents and uses thereof” (Indiana University Research and Technology Corporation, priority 2015, dated 2019)
“Also recorded” adds a separate entry of the source. Residues, ends and D or L forms follow the SMILES beside them. *: point of attachment. Cbz = O=C(OCc1ccccc1)*

Tests used:
[1] = biological target: T1, survivin in PC3 cells (Homo sapiens, UniProt O15392); assay: Proteasome inhibitor reversal of compound-induced survivin degradation; format: cell-based; conditions: for effect of proteasome inhibitor on LQZ-7F-induced survivin degradation: co-treatment with LQZ-7F
T1 construct: endogenous in cells; host or cells: PC-3 cells

[2] = test system: DU145 cells; assay: MTT cell survival assay, DU145; format: cell-based, human; conditions: compared with LQZ-7
Procedure: (§1) Human prostate cancer cell lines DU145 (top) and PC3 cells (bottom) were cultured in the presence of vehicle DMSO or 20 μM compounds off in-silico screening for 3 days followed by MTT assay. Cells survived in the presence of various compounds were normalized to that treated by DMSO vehicle. Arrows indicate compounds that inhibited >50% in cell survival. (*p<0.05; **p<0.01).
(§2) These assays were performed as previously described^49,50. Briefly, MTT assay were performed by seeding 2500 cells in 96-well plate and cultured 24 hours before addition of survivin inhibitors at different concentrations and continuous culture for 3 days. The cells were then subjected to MTT assay. For colony formation assay, 100 cells/well were seeded in 6-well plates and cultured for 24 hours before addition of survivin inhibitors or DMSO vehicle. The cells were continuously cultured in the presence of survivin inhibitors or DMSO for 10-14 days followed by staining with crystal violet and counting manually.

[3] = test system: PC-3 cells; assay: MTT cell survival assay, PC-3; format: cell-based, human; conditions: PC3, MTT, compared with LQZ-7
Procedure: as §1, §2

[4] = biological target: T2, ectopic Flag-tagged survivin in HEK293 cells (Homo sapiens, UniProt O15392); assay: Western blot of ectopic tagged survivin in HEK293; format: cell-based
T2 construct: expressed in transfected cells; host or cells: HEK293 cells, CMV promoter

[5] = biological target: T3, 14-3-3σ (Homo sapiens, UniProt P31947); assay: Non-denaturing PAGE of 14-3-3σ dimerization; format: biochemical; conditions: 100 μM
T3 sequence (P31947 1-248): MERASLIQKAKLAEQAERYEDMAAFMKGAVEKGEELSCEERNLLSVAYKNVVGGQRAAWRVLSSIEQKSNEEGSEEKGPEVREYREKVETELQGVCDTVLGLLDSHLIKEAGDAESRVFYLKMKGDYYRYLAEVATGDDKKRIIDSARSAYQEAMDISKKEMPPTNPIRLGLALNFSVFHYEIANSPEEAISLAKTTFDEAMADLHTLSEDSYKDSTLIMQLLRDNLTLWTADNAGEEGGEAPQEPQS
Procedure: After centrifugation at 11,000×g for 10 minutes, the supernatants were separated by electrophoresis on 15% Tris/glycine polyacrylamide gel followed by transfer to PVDF membrane for western blot analysis as previously described^48.

[6] = test system: survivin mRNA in DU145 cells; assay: Real-time RT-PCR of survivin mRNA; format: cell-based, human; conditions: DU145, 48 hrs
[7] = test system: multiple human cancer cell lines (acute myeloid leukemia, breast, colon, lung, pancreas, prostate, ovary); assay: MTT assay, multiple human cancer cell lines; format: cell-based; conditions: range over all cell lines tested, read-out: IC50 for survival of cancer cell lines
Procedure: Toward this goal, we tested the effect of LQZ-7F on survival of multiple human cancer cell lines representing acute myeloid leukemia and cancers of breast, colon, lung, pancreas, prostate, and ovary using MTT assay.
as §2

[8] = biological target: T4, survivin in DU145 cells (Homo sapiens, UniProt O15392); assay: Western blot of endogenous survivin, DU145; format: cell-based; conditions: vs vehicle
T4 construct: endogenous in cells; host or cells: DU145

[9] = biological target: T1, survivin in PC3 cells; assay: Western blot of endogenous survivin, PC3; format: cell-based; conditions: vs vehicle
[10] = biological target: T5, survivin in DU145 and PC-3 cells (Homo sapiens, UniProt O15392); assay: Survivin half-life determination (cycloheximide chase); format: cell-based; conditions: PC-3, cycloheximide pre-treated, 5 μM LQZ-7F
T5 construct: endogenous in cells; host or cells: DU145 and PC-3 cells
Procedure: PC-3 cells were pre-treated with cycloheximide (CHX) to inhibit protein synthesis followed by chasing for different times in the presence of LQZ-7F or DMSO control and Western blot analysis of remaining survivin.
The effect of survivin inhibitor on the half-life of survivin was determined as previously described^51. […] The cells were then harvested for Western blot analysis of survivin.

[11] = biological target: purified survivin (Homo sapiens, UniProt O15392); assay: Pull-down assay with sepharose-immobilized compound; format: binding; conditions: CNBr-activated sepharose, vs control beads
Source text: LQZ-7F was immobilized onto CNBr-activated Sepharose and used to pull down recombinant survivin, followed by separation on SDS-PAGE and silver staining.
To investigate if LQZ-7F indeed binds to survivin, we took advantage of the primary amine group and immobilized LQZ-7F onto CNBr-activated sepharose for a pull-down assay using purified survivin.

[12] = test system: PC3 cells; assay: Colony formation assay, PC3; format: cell-based, human; design: unit of the concentration uncertain; conditions: control approximately 62%
Procedure: as §2

[13] = test system: A549 cells; assay: Colony formation assay, A549; format: cell-based, human; conditions: control 45%
Procedure: as §2

[14] = test system: PC-3 cells; assay: Microtubule structure by α-tubulin immunostaining; format: cell-based, human; conditions: PC-3, 2 μM, 24 hours
Procedure: PC3 cells were treated without or with 2 μM LQZ-7F for 24 hours followed by immunostaining of α-tubulin and counter-stained with DAPI. The images were captured using confocal microscopy.

[15] = test system: PC-3 xenograft tumors; assay: PC-3 xenograft mouse model efficacy; format: in vivo, NOD/SCID mice
Procedure: We next determined if LQZ-7F is active in suppressing tumor growth in vivo using xenograft animal model. For this purpose, NOD/SCID mice were first implanted subcutaneously with PC-3 cells to establish xenograft tumors. PC-3 cell was chosen because it has highest IC50 (FIG. 6). When the xenograft tumor reached the size of ˜100 mm^3, the mice were randomized into two groups and treated with 25 mg/kg LQZ-7F or vehicle control via IP injection once every three days for total of 8 treatments. The growth of the xenograft tumors were measured using a caliper and body weight was monitored every three days for a total of 30 days. […] In fact, the body weight of the control group dropped slightly possibly due to disease burden of xenograft tumors. This symptom appears to be alleviated by LQZ-7F treatment, consistent with smaller tumor size in the treatment group.
For efficacy study, 3×10^6 PC-3 cells were injected subcutaneously in the flanks of 10 NOD/SCID mice. When the tumor volume reached about 100 mm^3, the mice were randomized into two different groups (5/group) with one group treated by vehicle control and the other by LQZ-7F at 25 mg/kg via IP injection once every three days for total of 8 treatments. Tumor volume and body weight were measured […]. On the 30th day after the initial treatment, mice were euthanized and the tumor tissues were harvested, weighed, and subjected to hematoxylin and eosin (H&E) staining as well as Western blot and immunohistochemistry analysis of survivin.

[16] = test system: cancer cells; conditions: read-out: IC50 for proliferation of cancer cells; cited from earlier work
[17] = biological target: survivin (Homo sapiens, UniProt O15392); conditions: cited from earlier work
[18] = biological target: survivin and its partner Ran protein (Homo sapiens, UniProt O15392); conditions: cited from earlier work
[19] = test system: human cancers; conditions: several phase II trials; cited from earlier work

T1 sequence (O15392 whole entry): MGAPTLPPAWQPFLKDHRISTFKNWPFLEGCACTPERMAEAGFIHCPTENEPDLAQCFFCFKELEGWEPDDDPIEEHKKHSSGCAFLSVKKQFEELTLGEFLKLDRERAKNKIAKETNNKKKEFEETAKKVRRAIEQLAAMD
T2 sequence (O15392 whole entry): as above
Sequence of survivin (O15392 whole entry): as above
Sequence of purified survivin (O15392 whole entry): as above
Sequence of survivin and its partner Ran protein (O15392 whole entry): as above
T5 sequence (O15392 whole entry): as above
T4 sequence (O15392 whole entry): as above

With `CC(C)C[C@@H](C=O)NC(=O)[C@H](CC(C)C)NC(=O)[C@H](CC(C)C)NC(=O)OCc1ccccc1` [MG132] (Cbz-Leu-Leu-Leu-aldehyde) the “effect of proteasome inhibitor on LQZ-7-induced survivin loss” value ([1]; co-treatment with LQZ-7, PC-3) was “reversed” and the “effect of proteasome inhibitor on LQZ-7F-induced survivin degradation” value [1] was “able to rescue”.

For `Cc1cccc(Nc2nc3nonc3nc2N/N=C/c2cc3c(cc2[N+](=O)[O-])OCO3)c1C` [LQZ-7D], the IC50 in words [2] was “low IC50”, the IC50 in words [3] was “low IC50” and the “level of ectopic tagged survivin” value [4] was “no effect”.

For `Cc1cccc(Nc2nc3nonc3nc2N/N=C/c2ccc(-c3cccc(C(=O)O)c3)o2)c1C` [LQZ-7], the “effect on 14-3-3σ dimerization” value [5] was “no effect” and the “survivin mRNA level” value [6] was “no effect”.

With `Cc1cccc(Nc2nc3nonc3nc2N/N=C/c2ccc(-c3ccc(Cl)c([N+](=O)[O-])c3)o2)c1C` [LQZ-7A] the IC50 in words [2] was “low IC50”, the IC50 in words [3] was “low IC50” and the “level of ectopic tagged survivin” value [4] was “no effect”.

With `Nc1nonc1C(=O)N/N=C1\c2ccccc2-c2nc3nonc3nc21` [LQZ-7F] the IC50 in words [2] was “lower IC50 than the parent compound”, the IC50 in words [3] was “lower IC50 than the parent compound” and the IC50 [7] was 0.4 to 4.4 µM. For the same molecule, the “endogenous survivin protein level” value [8] was “effectively suppressed”, the “endogenous survivin protein level” value [9] was “effectively suppressed” and the “level of ectopic tagged survivin” value [4] was “reduced survivin protein level; also recorded: completely eliminated survivin”. The “degradation of endogenous survivin” value [10] was “increased degradation”, the “pull-down of survivin by immobilized compound” value [11] was “successfully pulled down” and the colony formation efficiency ([12]; PC3, 0.2 (unit uncertain)) was “approximately 52%”. The colony formation efficiency ([12]; PC3, 0.5 (unit uncertain)) was about 12%, the colony formation efficiency ([12]; PC3, 1 (unit uncertain)) was about 8% and the colony formation efficiency ([13]; A549, 0.2) was “approximately 2.5%”. For the same molecule, the colony formation efficiency ([13]; A549, 0.5) was about 0%, the microtubule structure [14] was “severely disrupted” and the mitotic arrest [14] was “many cells are arrested in mitotic phase”. The “body weight of mice” value ([15]; 25 mg/kg IP once every three days, 8 treatments) was “remained constant”, the “growth of xenograft tumors” value ([15]; 25 mg/kg IP once every three days, 8 treatments, vs vehicle) was “significantly inhibited” and the “average weight of final tumors” value ([15]; 25 mg/kg IP, day 30, vs control group) was “significantly less”. For the same molecule, the “apoptotic cells in tumors” value ([15]; 25 mg/kg IP, vs control-treated tumors) was “more apoptotic cells” and the “survivin in xenograft tumors” value ([15]; Western blot and IHC, vs control-treated group) was “dramatically reduced”.

For `N#Cc1c(-c2cc(OCc3ccccc3)cc(OCc3ccccc3)c2)cc(-c2cc(Cl)ccc2O)[nH]c1=O` [LLP3], the IC50 [16] is listed as 14 to 38 µM, the “effect on survivin dimerization or its expression” value [17] is listed as “no effect” and the “interaction between survivin and Ran protein” value [18] is listed as “inhibited”.

With `CC(C)C[C@H](NC(=O)[C@H](Cc1ccccc1)NC(=O)c1cnccn1)B(O)O` [bortezomib] the “effect of proteasome inhibitor on LQZ-7F-induced survivin degradation” value [1] was “able to rescue”.

In the case of `COCCn1c2c([n+](Cc3cnccn3)c1C)C(=O)c1ccccc1C2=O` [YM155], the clinical efficacy [19] is listed as “limited or modest at best efficacy”.
